According to article PMC5125710, “Mechanistic Studies and Modeling Reveal the Origin of Differential Inhibition of Gag Polymorphic Viruses by HIV-1 Maturation Inhibitors” (PLoS Pathogens, 2016):
Several values for one entry are separate records, joined by “and”; a condition that tells them apart may be missing. Equal entries are not always repeated. Where two headings read alike, the source gives them in different places.

Legend:
WT HIV-1 Gag VLPs = biological target: T1, WT HIV-1 Gag VLPs (Human immunodeficiency virus type 1 group M subtype B, UniProt P03348); experiment: SPA radiolabeled competition binding assay, WT VLPs; set-up: Kd FC vs. WT: unit not given beside the values
T1 construct: constructed to encode full length HIV-1 LAI Gag; made in house; host or cells: 293T cells, transfected with pGagOpt plasmid; VLPs pelleted from supernatant

[1] = test system: HIV-1 NLRepRlucP373S ΔV370; experiment: microbe, parasite or virus in culture; type: cell-based; settings: for EC50: Human immunodeficiency virus 1; for log10 reduction in virus, multiple cycle antiviral assay, maximal inhibition: ΔV370, calculated from MC MPI
[2] = test system: HIV-1 NLRepRlucP373S V370A/Δ371T; experiment: microbe, parasite or virus in culture; type: cell-based; settings: for EC50: Human immunodeficiency virus 1, MC assay
[3] = test system: HIV-1 NLRepRlucP373S T371A; experiment: microbe, parasite or virus in culture; type: cell-based; settings: Human immunodeficiency virus 1, MC assay
[4] = test system: HIV-1 NLRepRlucP373S ΔT371; experiment: microbe, parasite or virus in culture; type: cell-based; settings: for EC50: Human immunodeficiency virus 1, MC assay
[5] = test system: HIV-1 NLRepRlucP373S V362I; experiment: microbe, parasite or virus in culture; type: cell-based; settings: for EC50: Human immunodeficiency virus 1, V362I virus; for log10 reduction in virus, multiple cycle antiviral assay, maximal inhibition: V362I, calculated from MC MPI
V362I HIV-1 Gag VLPs = biological target: T2, V362I HIV-1 Gag VLPs (Human immunodeficiency virus type 1 group M subtype B, UniProt P03348, V362I); experiment: biochemical; type: binding; set-up: Kd FC vs. WT: unit not given beside the values
T2 construct: constructed to encode full length HIV-1 LAI Gag; made in house; host or cells: 293T cells, transfected with pGagOpt plasmid

V370A HIV-1 Gag VLPs = biological target: T3, V370A HIV-1 Gag VLPs (Human immunodeficiency virus type 1 group M subtype B, UniProt P03348, V370A); experiment: biochemical; type: binding; set-up: Kd FC vs. WT: unit not given beside the values
T3 construct: constructed to encode full length HIV-1 LAI Gag; made in house; host or cells: 293T cells, transfected with pGagOpt plasmid

[6] = test system: HIV-1 NLRepRlucP373S V370M; experiment: microbe, parasite or virus in culture; type: cell-based; settings: for EC50: Human immunodeficiency virus 1, MC assay
[7] = test system: LAI pseudotyped NLRepRlucP373 Δenv; type: cell-based; settings: for Inhibition of luciferase production: compound added only at the infection stage (second step); for Inhibition of luciferase activity in the infection stage: compound added at the transfection step (first step)
[8] = test system: HIV-1 NLRepRlucP373S V370A; experiment: microbe, parasite or virus in culture; type: cell-based; settings: for EC50: Human immunodeficiency virus 1, V370A virus; for log10 reduction in virus, multiple cycle antiviral assay, maximal inhibition: V370A, calculated from MC MPI
[9] = biological target: T4, CA/SP1 cleavage of WT Gag VLPs by HIV-1 protease (Human immunodeficiency virus type 1 group M subtype B, UniProt P03348); type: biochemical; settings: 3 μM MI
T4 construct: constructed to encode full length HIV-1 LAI Gag; made in house; host or cells: Gag VLPs from transfected 293T cells

[10] = test system: HIV-1 NLRepRlucP373S V370A; type: cell-based; settings: for SC Assay MPI (%): V370A virus; for log10 reduction in virus, single cycle antiviral assay, maximal inhibition: V370A, calculated from SC MPI
[11] = from mean C24 and free fraction of 0.14
[12] = test system: HIV-1 NLRepRlucP373S (WT); experiment: microbe, parasite or virus in culture; type: cell-based; settings: for MC Assay MPI (%): maximal percent inhibition at two highest drug concentrations
HIV-1 = settings: cited from earlier work
[13] = test system: HIV-1 NLRepRlucP373S ΔV370; type: cell-based; settings: for log10 reduction in virus, single cycle antiviral assay, maximal inhibition: ΔV370, calculated from SC MPI; for SC Assay MPI (%): ΔV370 virus
ΔV370 HIV-1 Gag VLPs = ΔV370 HIV-1 Gag VLPs (Human immunodeficiency virus type 1 group M subtype B, UniProt P03348, DEL370-370); experiment: SPA radiolabeled competition binding assay, ΔV370 VLPs; set-up: Kd FC vs. WT: unit not given beside the values; settings: for Kd FC vs. WT: ΔV370 VLP
[14] = biological target: CA/SP1 cleavage of ΔV370 Gag VLPs by HIV-1 protease (Human immunodeficiency virus type 1 group M subtype B, UniProt P03348, DEL370-370); experiment: HIV-1 VLP protease cleavage assay (LC/MS), ΔV370 VLPs; type: biochemical; settings: 3 μM MI
[15] = test system: HIV-1 NLRepRlucP373S (WT); type: cell-based; settings: for SC Assay MPI (%): WT virus; for log10 reduction in virus, single cycle antiviral assay, maximal inhibition: WT, calculated from SC MPI
[16] = test system: HIV-1 NLRepRlucP373S Q369H; experiment: microbe, parasite or virus in culture; type: cell-based; settings: Human immunodeficiency virus 1, MC assay

C=C(C)[C@@H]1CC[C@]2(C(=O)O)CC[C@]3(C)[C@H](CC[C@@H]4[C@@]5(C)CC=C(c6ccc(C(=O)O)cc6)C(C)(C)[C@@H]5CC[C@]43C)[C@@H]12 [BMS-1]
Kd FC vs. WT (WT HIV-1 Gag VLPs; WT VLP): 1.0
Kd (WT HIV-1 Gag VLPs; WT VLP, competition displacement of [3H]-BMS-977660, read-out: Kd): 25.4 nM
EC50 ([1]; ΔV370 virus, MC assay): > 6000 nM
MC Assay MPI (%) ([1]; ΔV370 virus): 3.7 +/- 2.9% and 3.7%
EC50 [2]: > 10000 nM
EC50 [3]: 28 nM
EC50 [4]: 292 nM
EC50 ([5]; MC assay): 213 nM
MC Assay MPI (%) ([5]; V362I virus): 71.4 +/- 5.4% and 71.4%
Kd FC vs. WT (V362I HIV-1 Gag VLPs; V362I VLP): 1.9
Kd (V362I HIV-1 Gag VLPs; V362I VLP, competition displacement of [3H]-BMS-977660, read-out: Kd): 49 nM
Kd FC vs. WT (V370A HIV-1 Gag VLPs; V370A VLP): 7.0
Kd (V370A HIV-1 Gag VLPs; V370A VLP, competition displacement of [3H]-BMS-977660, read-out: Kd): 177 nM
EC50 [6]: > 4000 nM

COc1ccnc2[nH]cc(C(=O)C(=O)N3CCN(C(=O)c4ccccc4)C[C@H]3C)c12 [BMS-378806, 4-benzoyl-1-[(4-methoxy-1H-pyrrolo[2,3-b]pyridin-3-yl)oxoacetyl]-2-(R)-methylpiperazine]
Inhibition of luciferase production [7]: fully active

C=C(C)[C@@H]1CC[C@]2(NCCN3CCS(=O)(=O)CC3)CC[C@]3(C)[C@H](CC[C@@H]4[C@@]5(C)CC=C(c6ccc(C(=O)O)cc6)C(C)(C)[C@@H]5CC[C@]43C)[C@@H]12 [BMS-955176]
EC50 ([8]; MC assay): 2.7 nM
MC Assay MPI (%) ([8]; V370A virus): 98.2 +/- 1.3% and 98.2%
log10 reduction in virus, multiple cycle antiviral assay, maximal inhibition [8]: -1.73 log10
Inhibition of CA/SP1 cleavage ([9]; 4 hours): sustained inhibition
SC Assay MPI (%) [10]: 76.5 +/- 3.0% and 76.5%
log10 reduction in virus, single cycle antiviral assay, maximal inhibition [10]: -0.64 log10
Mean free concentration [11]: 213 nM
Kd (WT HIV-1 Gag VLPs): 3.2 nM
Kd FC vs. WT (WT HIV-1 Gag VLPs; WT VLP): 1.0
EC50 ([1]; ΔV370 virus, MC assay): 13 nM
log10 reduction in virus, multiple cycle antiviral assay, maximal inhibition [1]: -1.09 log10
MC Assay MPI (%) ([1]; ΔV370 virus): 91.9 +/- 4.4% and 92% and 91.9%
MC Assay MPI (%) ([12]; WT virus): 100 +/- 0.4% and 100%
log10 reduction in virus, multiple cycle antiviral assay, maximal inhibition ([12]; WT, calculated from MC MPI): < -2.00 log10
EC50 [2]: 6.6 nM
EC50 [3]: 2 nM
EC50 [4]: 7.3 nM
EC50 ([5]; MC assay): 4.5 nM
MC Assay MPI (%) ([5]; V362I virus): 93.8 +/- 1.8% and 93.8%
log10 reduction in virus, multiple cycle antiviral assay, maximal inhibition [5]: -1.20 log10
Clinical VLR, maximal median HIV-1 log10 RNA reduction (HIV-1; subtype B Gag polymorphs (compared to V370A, V362I), 40 mg): -1.71 log10
Clinical VLR, maximal median HIV-1 log10 RNA reduction (HIV-1; subtype B WT genotype, 40 mg QD, 10 day monotherapy): -1.75 log10
Clinical VLR, maximal median HIV-1 log10 RNA reduction (HIV-1; subtype C viruses (compared to ΔV370), 40 mg): -1.35 log10
Kd (V362I HIV-1 Gag VLPs): 4.3 nM
Kd FC vs. WT (V362I HIV-1 Gag VLPs; V362I VLP): 1.3
Inhibition of luciferase activity in the infection stage [7]: inhibiting luciferase production only when added in the first step
log10 reduction in virus, single cycle antiviral assay, maximal inhibition [13]: -0.27 log10
SC Assay MPI (%) [13]: 45.9%
Kd (V370A HIV-1 Gag VLPs): 6.5 nM
Kd FC vs. WT (V370A HIV-1 Gag VLPs; V370A VLP): 2
Kd (ΔV370 HIV-1 Gag VLPs): 33.6 nM
Kd FC vs. WT (ΔV370 HIV-1 Gag VLPs): 10
Inhibition of CA/SP1 cleavage ([14]; 4 hour time point): 13%
EC50 [6]: 2.8 nM
SC Assay MPI (%) [15]: 93.0 +/- 2.5% and 93%
log10 reduction in virus, single cycle antiviral assay, maximal inhibition [15]: -1.15 log10

C=C(C)[C@@H]1CC[C@]2(C(=O)O)CC[C@]3(C)[C@H](CC[C@@H]4[C@@]5(C)CC[C@H](OC(=O)CC(C)(C)C(=O)O)C(C)(C)[C@@H]5CC[C@]43C)[C@@H]12 [BVM, bevirimat, reference compound]
MC Assay MPI (%) ([8]; V370A virus): 65.4 +/- 3.8% and 65.4%
log10 reduction in virus, multiple cycle antiviral assay, maximal inhibition [8]: -0.46 log10
Inhibition of CA/SP1 cleavage ([9]; 2 hours): 39%
Inhibition of CA/SP1 cleavage ([9]; 4 hours): 1%
SC Assay MPI (%) [10]: 19% and 19.0 +/- 3.5%
log10 reduction in virus, single cycle antiviral assay, maximal inhibition [10]: -0.08 log10
Kd FC vs. WT (WT HIV-1 Gag VLPs; WT VLP): 1.0
EC50 ([1]; ΔV370 virus, MC assay): > 10000 nM
log10 reduction in virus, multiple cycle antiviral assay, maximal inhibition [1]: -0.04 log10
MC Assay MPI (%) ([1]; ΔV370 virus): 9.2+/- 6.3% and 9% and 9.2%
EC50 [3]: 40 nM
MC Assay MPI (%) ([5]; V362I virus): 81.3 +/- 2.0% and 81.3%
log10 reduction in virus, multiple cycle antiviral assay, maximal inhibition [5]: -0.73 log10
Kd FC vs. WT (V362I HIV-1 Gag VLPs; V362I VLP): 2.9
Inhibition of luciferase activity in the infection stage [7]: inhibiting luciferase production only when added in the first step
log10 reduction in virus, single cycle antiviral assay, maximal inhibition [13]: 0.06 log10
SC Assay MPI (%) [13]: -26% and -25.6%
EC50 [16]: 7 nM
Kd FC vs. WT (V370A HIV-1 Gag VLPs; V370A VLP): 9.1
Kd FC vs. WT (ΔV370 HIV-1 Gag VLPs): 48
Inhibition of CA/SP1 cleavage ([14]; whole time course): not inhibitory at any time point
SC Assay MPI (%) [15]: 82.3 +/- 2.7% and 82% and 82.3%
log10 reduction in virus, single cycle antiviral assay, maximal inhibition [15]: -0.71 log10

Cc1c(O)cccc1C(=O)N[C@@H](CSc1ccccc1)[C@H](O)CN1C[C@H]2CCCC[C@H]2C[C@H]1C(=O)NC(C)(C)C [NFV, nelfinavir, reference compound]
EC50 ([8]; MC assay): 4.1 nM
MC Assay MPI (%) ([8]; V370A virus): 99.9%
FC = EC50 (SDM)/EC50 (WT) ([8]; V370A virus, MC assay): 1.0
SC Assay MPI (%) [10]: 99.0%
EC50 ([1]; ΔV370 virus, MC assay): 5.2 nM
FC = EC50 (SDM)/EC50 (WT) ([1]; ΔV370 virus, MC assay): 1.2
EC50 ([12]; Human immunodeficiency virus 1, WT virus, MC assay): 4.3 nM
FC = EC50 (SDM)/EC50 (WT) ([12]; WT virus, MC assay): 1.0
MC Assay MPI (%) ([12]; WT virus): 100%
EC50 [2]: 5.7 nM
FC = EC50 (SDM)/EC50 (WT) ([2]; MC assay): 1.3
EC50 [4]: 2 nM
FC = EC50 (SDM)/EC50 (WT) ([4]; ΔT371 virus, MC assay): 0.5
EC50 ([5]; MC assay): 4.3 nM
MC Assay MPI (%) ([5]; V362I virus): 100%
FC = EC50 (SDM)/EC50 (WT) ([5]; V362I virus, MC assay): 1.0
Inhibition of luciferase activity in the infection stage [7]: luciferase activity is inhibited
Inhibition of luciferase production [7]: luciferase production is not inhibited
EC50 [6]: 4.5 nM
FC = EC50 (SDM)/EC50 (WT) ([6]; V370M virus, MC assay): 1.0
SC Assay MPI (%) [15]: 99.3%
